According to the supplement of paper PMC10307832:

What was measured:
Experiment in all cases: relative viability (nuclei count vs DMSO), 5 days (fraction); higher = more cells survive
[1] = compound: CN1CCN(CC1)C2=CC(=C(C=C2)NC3=NC=C4C(=N3)N(C5=CC=CC=C5C(=O)N4C)C)OC [XMD8-85] + CCNC(=O)c1noc(-c2cc(C(C)C)c(O)cc2O)c1-c1ccc(CN2CCOCC2)cc1 [Luminespib] (partner 0.01 µM)
Method in brief: (§1)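 The day after seeding in 1536-well plates, lung cancer cell lines were treated by pin tool with a single drug, or with a fixed anchor-drug dose together with five library-drug doses (not always all listed) in √10 steps. After 5 days, a combined fix-and-stain solution (final 0.05% Triton X-100, 1% formaldehyde, 1 ug/ml Hoechst) was added. Nuclei counted on 4× images gave relative viability as treated counts over vehicle counts, reported as the median of duplicate plates.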

[2] = compound: CN1CCN(CC1)C2=CC(=C(C=C2)NC3=NC=C4C(=N3)N(C5=CC=CC=C5C(=O)N4C)C)OC [XMD8-85] + O=C(c1cc(Cc2n[nH]c(=O)c3ccccc23)ccc1F)N1CCN(C(=O)C2CC2)CC1 [Olaparib] (partner 8 µM)
Method in brief: as §1

[3] = compound: O=C(O)C(Cc1ccccc1[N+](=O)[O-])=NNc1nc(-c2ccc(Cl)c(Cl)c2)cs1 (mixture of isomers) [4EGI-1] + CS(=O)(=O)N1CCN(Cc2cc3nc(-c4cccc5[nH]ncc45)nc(N4CCOCC4)c3s2)CC1 [Pictilisib] (partner 1 µM)
Method in brief: as §1

[4] = compound: O=C(O)C(Cc1ccccc1[N+](=O)[O-])=NNc1nc(-c2ccc(Cl)c(Cl)c2)cs1 (mixture of isomers) [4EGI-1] + NC(=O)Nc1cc(-c2cccc(F)c2)sc1C(=O)N[C@H]1CCCNC1 [AZD7762] (partner 0.2 µM)
Method in brief: as §1

Cell Line | relative viability ([1]; first compound 0.08 µM) | relative viability ([1]; first compound 0.253 µM) | relative viability ([1]; first compound 0.8 µM) | relative viability ([1]; first compound 2.53 µM) | relative viability ([1]; first compound 8 µM) | relative viability ([2]; first compound 0.08 µM) | relative viability ([2]; first compound 0.253 µM) | relative viability ([2]; first compound 0.8 µM) | relative viability ([2]; first compound 2.53 µM) | relative viability ([2]; first compound 8 µM) | relative viability ([3]; first compound 0.5 µM) | relative viability ([3]; first compound 1.581 µM) | relative viability ([3]; first compound 5 µM) | relative viability ([3]; first compound 15.81 µM) | relative viability ([3]; first compound 50 µM) | relative viability ([4]; first compound 0.5 µM) | relative viability ([4]; first compound 1.581 µM) | relative viability ([4]; first compound 5 µM) | relative viability ([4]; first compound 15.81 µM) | relative viability ([4]; first compound 50 µM)
LC-2-ad | 1.26 | 0.996 | 1.22 | 0.874 | 0.706 | 0.771 | 0.687 | 0.701 | 0.581 | 0.415 | 0.655 | 0.419 | 0.485 | 0.214 | 0.142 | 0.855 | 0.866 | 0.917 | 0.3 | 0.208
LCLC-97TM1 | 0.715 | 0.87 | 0.833 | 0.813 | 0.85 | 0.433 | 0.285 | 0.359 | 0.477 | 0.201 | 0.174 | – | 0.175 | 0.199 | 0.105 | 0.242 | – | 0.362 | 0.41 | 0.0881
LCLC-103H | 0.96 | 0.941 | 0.864 | 1.12 | 0.704 | 0.84 | 0.759 | 0.768 | 0.793 | 0.665 | 0.57 | 0.541 | 0.591 | 0.574 | 0.451 | 0.868 | 0.727 | 0.788 | 0.756 | 0.446
LK-2 | – | 0.184 | 0.192 | 0.155 | 0.162 | 0.802 | 0.815 | 0.555 | 0.669 | 0.448 | 0.621 | – | 0.696 | 0.64 | 0.541 | 0.543 | – | 0.451 | 0.344 | 0.177
LOU-NH91 | 0.413 | 0.31 | 0.326 | 0.523 | 0.309 | 0.944 | 0.922 | 0.917 | 0.92 | 0.695 | 0.532 | – | 0.539 | 0.478 | 0.484 | 0.811 | – | 0.781 | 0.72 | 0.439
LU99A | 0.228 | 0.252 | 0.206 | 0.309 | 0.193 | 0.247 | 0.154 | 0.238 | 0.242 | 0.218 | 0.375 | – | 0.346 | 0.326 | 0.247 | 0.546 | 0.235 | 0.323 | 0.237 | 0.141
LXF-289 | 0.611 | 0.57 | 0.584 | – | 0.4 | 0.972 | 1.08 | 1.09 | 0.94 | 0.915 | 0.846 | 0.731 | 0.793 | 0.745 | 0.516 | 1.05 | 1.1 | 1.06 | 1.04 | 0.545
NCI-H23 | 0.207 | 0.234 | 0.214 | 0.199 | 0.193 | 0.313 | 0.308 | 0.302 | 0.282 | 0.254 | 0.481 | – | 0.561 | 0.579 | 0.343 | 0.372 | – | 0.27 | 0.23 | 0.192
NCI-H322M | 0.609 | 0.823 | 0.797 | 0.927 | 0.68 | 0.912 | 0.795 | 0.899 | 0.71 | 0.647 | 0.56 | 0.467 | 0.527 | 0.443 | 0.5 | 0.604 | – | 0.563 | 0.417 | 0.36
NCI-H358 | 0.303 | 0.172 | 0.376 | 0.339 | 0.239 | 0.508 | 0.565 | 0.625 | 0.691 | 0.445 | 0.333 | 0.368 | 0.346 | 0.259 | 0.223 | 0.632 | – | 0.582 | 0.275 | 0.218
NCI-H441 | 0.299 | 0.333 | 0.4 | 0.356 | 0.231 | 0.405 | 0.553 | 0.421 | 0.538 | 0.371 | 0.517 | 0.414 | 0.455 | 0.447 | 0.19 | 1.38 | 1.13 | 1.28 | 1.08 | 0.772
NCI-H460 | 0.0362 | 0.0282 | 0.0359 | 0.0262 | 0.0291 | 0.284 | 0.448 | 0.435 | 0.35 | 0.213 | 0.381 | – | 0.366 | 0.331 | 0.261 | 0.572 | – | 0.705 | 0.24 | 0.302
NCI-H596 | 0.885 | 1.02 | – | 0.875 | 0.605 | 0.696 | 0.602 | 0.702 | 0.49 | 0.467 | 0.439 | 0.394 | 0.394 | 0.4 | 0.352 | 1.07 | 1.21 | 1.31 | 0.769 | 0.279
NCI-H647 | 0.151 | 0.208 | 0.169 | 0.126 | 0.132 | 0.573 | 0.378 | 0.605 | 0.408 | 0.118 | 0.437 | – | 0.432 | 0.401 | 0.27 | 0.375 | – | 0.643 | 0.192 | 0.101
NCI-H650 | 0.892 | 0.862 | 0.773 | 0.82 | 0.639 | 0.403 | 0.395 | 0.375 | 0.387 | 0.279 | 1.13 | – | 1.09 | 0.969 | 0.723 | 1.09 | – | 0.978 | 0.912 | 0.318
NCI-H727 | 0.431 | 0.527 | 0.359 | 0.322 | 0.344 | 0.684 | 0.674 | 0.867 | 0.725 | 0.684 | 0.382 | 0.451 | 0.26 | 0.344 | 0.328 | 0.631 | 0.631 | 0.511 | 0.519 | 0.478
NCI-H838 | 0.234 | 0.225 | 0.29 | 0.389 | 0.189 | 0.796 | 0.749 | 0.898 | 0.778 | 0.279 | 0.527 | – | 0.435 | 0.362 | 0.173 | 1.05 | – | 0.904 | 0.647 | 0.617
